In ChEMBL document CHEMBL1681655, “Identification of a new series of non-peptidic NK3 receptor antagonists” (Bioorg Med Chem Lett, 2011):
pKi: −log10 of the molar value.

Assays:
Neuromedin-K receptor = biological target: T1, Neuromedin-K receptor (Homo sapiens, UniProt P29371); experiment: Displacement of [3H]Lu AE93103 from human NK3 receptor expressed in BHK cells; format: cell-based
T1 sequence (P29371 whole entry): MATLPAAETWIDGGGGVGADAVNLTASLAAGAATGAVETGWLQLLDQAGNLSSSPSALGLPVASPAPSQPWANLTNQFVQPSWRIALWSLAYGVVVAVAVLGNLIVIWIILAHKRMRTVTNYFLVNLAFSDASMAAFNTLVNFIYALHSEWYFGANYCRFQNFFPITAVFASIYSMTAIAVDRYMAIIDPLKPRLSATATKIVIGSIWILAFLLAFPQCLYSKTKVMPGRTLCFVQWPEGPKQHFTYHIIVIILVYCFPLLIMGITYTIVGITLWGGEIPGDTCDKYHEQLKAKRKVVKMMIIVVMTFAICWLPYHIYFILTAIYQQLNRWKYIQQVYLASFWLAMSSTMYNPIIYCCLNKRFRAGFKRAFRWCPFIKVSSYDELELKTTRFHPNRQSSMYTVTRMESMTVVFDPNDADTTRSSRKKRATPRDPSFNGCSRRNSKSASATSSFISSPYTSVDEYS

Substance-P receptor = Substance-P receptor (Homo sapiens, UniProt P25103); experiment: Displacement of [125I]SP from human cloned NK1 receptor
Substance-K receptor = biological target: T2, Substance-K receptor (Homo sapiens, UniProt P21452); experiment: Displacement of [125I]NKA from human cloned NK2 receptor
T2 sequence (P21452 whole entry): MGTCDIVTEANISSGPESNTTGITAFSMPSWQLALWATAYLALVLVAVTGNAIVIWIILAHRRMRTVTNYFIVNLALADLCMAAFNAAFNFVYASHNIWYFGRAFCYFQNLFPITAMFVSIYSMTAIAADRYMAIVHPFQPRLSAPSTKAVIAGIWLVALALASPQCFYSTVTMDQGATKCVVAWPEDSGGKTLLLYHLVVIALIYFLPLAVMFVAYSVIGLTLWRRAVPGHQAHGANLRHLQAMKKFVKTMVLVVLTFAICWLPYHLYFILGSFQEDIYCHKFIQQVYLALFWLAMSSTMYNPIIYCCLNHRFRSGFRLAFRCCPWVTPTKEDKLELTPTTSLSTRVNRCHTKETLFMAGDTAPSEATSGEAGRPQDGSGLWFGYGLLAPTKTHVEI

Liver microsomes [1] = experiment: Intrinsic clearance in human liver microsomes; format: ADME, Microsome
[2] = Apparent permeability of the compound in human Caco2 cells; format: ADME, cell-based; conditions: caco-2
Caco-2 = experiment: Efflux ratio of permeability from […] in human Caco2 cells; format: ADME, cell-based
Liver microsomes [3] = experiment: Intrinsic clearance in rat liver microsomes; format: ADME, Microsome
[4] = Oral bioavailability in rat; format: ADME, organism-based; conditions: in vivo
Gerbillinae = experiment: Reversal of senktide-induced explorative behavior in sc dosed gerbils compound pretreated 60 mins before senktide induction by […] assay; format: functional
[5] = Ratio of drug level in brain to plasma in sc dosed gerbils after 90 mins; format: ADME, organism-based; conditions: gerbillinae, read-out: BPR
[6] = Clearance in rat; format: ADME, organism-based; conditions: in vivo

Chain of Substance-P receptor (P25103 whole entry): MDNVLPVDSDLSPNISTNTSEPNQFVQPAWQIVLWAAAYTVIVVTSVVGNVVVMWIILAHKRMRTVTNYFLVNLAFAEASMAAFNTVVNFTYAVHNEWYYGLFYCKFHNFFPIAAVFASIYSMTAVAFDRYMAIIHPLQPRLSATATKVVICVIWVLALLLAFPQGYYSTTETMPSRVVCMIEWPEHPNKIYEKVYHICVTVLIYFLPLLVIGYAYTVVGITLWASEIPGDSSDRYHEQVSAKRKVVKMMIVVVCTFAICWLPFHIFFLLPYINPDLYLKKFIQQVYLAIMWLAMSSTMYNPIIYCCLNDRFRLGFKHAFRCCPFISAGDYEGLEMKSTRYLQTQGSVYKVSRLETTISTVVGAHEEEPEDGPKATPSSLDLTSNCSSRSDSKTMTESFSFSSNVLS

Row | pKi (Neuromedin-K receptor) | pKi (Substance-P receptor) | pKi (Substance-K receptor) | CL (Liver microsomes [1]) [L/min] | Papp [2] [×10⁻⁶ cm/s] | Ratio (Caco-2) | CL (Liver microsomes [3]) [mL/min] | bioavailability [4] [%] | Kp at 1.5 h [5] | clearance [6] [mL/min/kg] | Compound | ED50 (Gerbillinae) [mg/kg]
1 | 8.23 | 6.89 | 7.06 | 3.5 | 5.6 | 2.6 | – | – | – | – | CC(=O)NC1(c2ccccc2)CCN(C[C@@H]2C[C@@]2(C(=O)N(C)Cc2ccccc2)c2ccc(Cl)c(Cl)c2)CC1 | –
2 | 7.92 | – | – | 5.6 | 5.7 | 3.5 | – | – | – | – | CN(Cc1ccc(F)cc1)C(=O)[C@@]1(c2ccc(Cl)c(Cl)c2)C[C@H]1CN1CCN(C(=O)CN2CCCC2)CC1 | –
3 | 8.12 | 6.47 | 7.12 | > 20 | 25 | 1.5 | 210 | < 5 | 1.9 | 108 | CN(Cc1ccc(F)cc1)C(=O)[C@@]1(c2ccc(Cl)c(Cl)c2)C[C@H]1CN1CCN(S(=O)(=O)N(C)C)CC1 | 14.2
4 | 6.82 | – | – | 0.9 | 5.4 | 2.7 | – | – | – | – | CCCNC[C@@H]1C[C@@]1(C(=O)N(C)Cc1ccc(F)cc1)c1ccc(Cl)c(Cl)c1 | –
5 | 6.85 | – | – | 0.9 | 11 | 1.5 | – | – | – | – | CC(C)NC[C@@H]1C[C@@]1(C(=O)N(C)Cc1ccc(F)cc1)c1ccc(Cl)c(Cl)c1 | –
